Target: human APJ receptor (Homo sapiens (Human), UniProt P35414)
Test: [35S]GTPγS binding assay on membranes from CHO cells stably expressing human APJ receptor
Assay type: biochemical
Conditions: membranes of CHO cells stably expressing human APJ receptor, read-out: Activity hAPJ SPA EC50 IP
Method: The human APJ receptor was cloned by polymerase chain reaction and the gene encoding the receptor was subcloned in pFLAG-CMV™-3 expression vector (Sigma, Saint Louis, Mo. USA) in-house at Amgen. A GTPγS binding assay was performed on membranes prepared from CHO cells stably expressing human APJ receptor. The optimum experimental conditions for the concentrations of GDP, MgCl2, and NaCl in the assay buffer were initially determined. […] Incubation was at RT for 90 min and the microplate was read using a ViewLux™ ultra HTS Microplate Imager (PerkinElmer, Inc.). All the results presented are means of several independent experiments and analyzed by non-linear regression methods using the commercially available program Prism (GraphPad, San Diego, Calif.) providing the EC50 values detailed in Table 27.

Chain of human APJ receptor (P35414 whole entry): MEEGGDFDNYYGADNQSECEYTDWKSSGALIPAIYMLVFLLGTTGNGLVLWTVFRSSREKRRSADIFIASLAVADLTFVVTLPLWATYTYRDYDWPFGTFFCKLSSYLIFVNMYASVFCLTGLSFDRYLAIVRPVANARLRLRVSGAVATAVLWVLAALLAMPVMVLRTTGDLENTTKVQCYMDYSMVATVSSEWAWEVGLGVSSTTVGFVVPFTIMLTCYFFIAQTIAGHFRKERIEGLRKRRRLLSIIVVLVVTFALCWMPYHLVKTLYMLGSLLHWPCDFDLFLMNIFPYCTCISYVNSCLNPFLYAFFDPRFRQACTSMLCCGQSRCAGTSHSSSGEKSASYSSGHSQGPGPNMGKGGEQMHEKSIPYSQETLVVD

## CCc1noc(C)c1Cn1c(NS(=O)(=O)[C@@H](C)[C@H](OC)c2cnc(C)cn2)nnc1-c1cccc(OC)n1 [Example 195.0, (1R,2S)-N-(4-((3-ethyl-5-methylisoxazol-4-yl)methyl)-5-(6-methoxypyridin-2-yl)-4H-1,2,4-triazol-3-yl)-1-methoxy-1-(5-methylpyrazin-2-yl)propane-2-sulfonamide]
  EC50: 650 nM

## CC[C@@H](c1c(C)noc1C)n1c(NS(=O)(=O)[C@@H](C)[C@H](C)c2ncc(Cl)cn2)nnc1-c1cccc(OC)n1 (single isomer, unassigned) [Example 224.0, (2S,3R)-3-(5-chloro-2-pyrimidinyl)-N-(4-((1S)-1-(3,5-dimethyl-1,2-oxazol-4-yl)propyl)-5-(6-methoxy-2-pyridinyl)-4H-1,2,4-triazol-3-yl)-2-butanesulfonamide or (2S,3R)-3-(5-chloro-2-pyrimidinyl)-N-(4-((1R)-1-(3,5-dimethyl-1,2-oxazol-4-yl)propyl)-5-(6-methoxy-2-pyridinyl)-4H-1,2,4-triazol-3-yl)-2-butanesulfonamide]
  EC50: 13 nM

## COc1cccc(-c2nnc(NS(=O)(=O)[C@@H](C)[C@@H](OC(C)C)c3ncc(C)cn3)n2[C@H](c2conc2C)C2CC2)n1 (single isomer, unassigned) [Example 230.0, (1S,2S)-N-(4-((S)-cyclopropyl(3-methyl-1,2-oxazol-4-yl)methyl)-5-(6-methoxy-2-pyridinyl)-4H-1,2,4-triazol-3-yl)-1-(5-methyl-2-pyrimidinyl)-1-(2-propanyloxy)-2-propanesulfonamide or (1S,2S)-N-(4-((R)-cyclopropyl(3-methyl-1,2-oxazol-4-yl)methyl)-5-(6-methoxy-2-pyridinyl)-4H-1,2,4-triazol-3-yl)-1-(5-methyl-2-pyrimidinyl)-1-(2-propanyloxy)-2-propanesulfonamide]
  EC50: 0.5 nM

## COc1cccc(-c2nnc(NS(=O)(=O)[C@@H](C)[C@@H](OC(C)C)c3ncc(C)cn3)n2[C@@H](C)[C@H]2CCCO2)n1 (single isomer, unassigned) [Example 276.0]
  EC50: 1.3 nM

## COc1cccc(-c2nnc(NS(=O)(=O)[C@@H](C)[C@H](OC)c3ncc(Cl)cn3)n2C(CO)CO)n1 [Example 5.0, (1R,2S)-1-(5-chloro-2-pyrimidinyl)-N-(4-(2-hydroxy-1-(hydroxymethyl)ethyl)-5-(6-methoxy-2-pyridinyl)-4H-1,2,4-triazol-3-yl)-1-methoxy-2-propanesulfonamide]
  EC50: 50 nM

## COc1cccc(-c2nnc(NS(=O)(=O)[C@@H](C)[C@H](OC)c3ncc(Cl)cn3)n2[C@@H](C)c2noc(C)n2)n1 (single isomer, unassigned) [Example 243.0, (1R,2S)-1-(5-chloro-2-pyrimidinyl)-1-methoxy-N-(5-(6-methoxy-2-pyridinyl)-4-((1S)-1-(5-methyl-1,2,4-oxadiazol-3-yl)ethyl)-4H-1,2,4-triazol-3-yl)-2-propanesulfonamide or (1R,2S)-1-(5-chloro-2-pyrimidinyl)-1-methoxy-N-(5-(6-methoxy-2-pyridinyl)-4-((1R)-1-(5-methyl-1,2,4-oxadiazol-3-yl)ethyl)-4H-1,2,4-triazol-3-yl)-2-propanesulfonamide]
  EC50: 3.7 nM

## COc1cnc([C@@H](C)[C@H](C)S(=O)(=O)Nc2nnc(-c3cccc(OC)n3)n2C2CC2)cn1 [Example 118.0]
  EC50: 31 nM

## COc1cccc(-c2nnc(NS(=O)(=O)[C@@H](C)[C@H](OC)c3ncc(Cl)cn3)n2C2CCCCC2)n1 [Example 184.0, (1R,2S)-1-(5-chloro-2-pyrimidinyl)-N-(4-cyclohexyl-5-(6-methoxy-2-pyridinyl)-4H-1,2,4-triazol-3-yl)-1-methoxy-2-propanesulfonamide]
  EC50: 7.3 nM

## COc1cccc(-c2nnc(NS(=O)(=O)[C@@H](C)[C@H](OC)c3ncc(Cl)cn3)n2Cc2cnoc2)n1 [Example 186.0, (1R,2S)-1-(5-chloropyrimidin-2-yl)-N-(4-(isoxazol-4-ylmethyl)-5-(6-methoxypyridin-2-yl)-4H-1,2,4-triazol-3-yl)-1-methoxypropane-2-sulfonamide]
  EC50: 98 nM

## COCC(COC)n1c(NS(=O)(=O)[C@@H](C)[C@H](OC)c2ncc(C)cn2)nnc1-c1ccccn1 [Example 8.0, (1R,2S)-N-(4-(1,3-dimethoxy-2-propanyl)-5-(2-pyridinyl)-4H-1,2,4-triazol-3-yl)-1-methoxy-1-(5-methyl-2-pyrimidinyl)-2-propanesulfonamide]
  EC50: 19 nM

## COCC(COC)n1c(NS(=O)(=O)[C@@H](C)[C@@H](OC(C)C)c2ncc(F)cn2)nnc1-c1cccc(OC)n1 [Example 171.0, (1S,2S)-N-(4-(1,3-dimethoxy-2-propanyl)-5-(6-methoxy-2-pyridinyl)-4H-1,2,4-triazol-3-yl)-1-(5-fluoro-2-pyrimidinyl)-1-(2-propanyloxy)-2-propanesulfonamide]
  EC50: 0.37 nM

## Cc1cncc(-c2nnc(NS(=O)(=O)[C@@H](C)[C@@H](OC(C)C)c3ncc(Cl)cn3)n2C2CC2)c1 [Example 129.0]
  EC50: 66 nM

## COc1cccc(-c2nnc(NS(=O)(=O)[C@@H](C)[C@H](OC)c3ncc(Cl)cn3)n2C[C@@H]2CCCOC2)n1 (racemic) [Example 312.0, (1R,2S)-1-(5-chloropyrimidin-2-yl)-1-methoxy-N-(5-(6-methoxypyridin-2-yl)-4-(((R)-tetrahydro-2H-pyran-3-yl)methyl)-4H-1,2,4-triazol-3-yl)propane-2-sulfonamide or (1R,2S)-1-(5-chloropyrimidin-2-yl)-1-methoxy-N-(5-(6-methoxypyridin-2-yl)-4-(((S)-tetrahydro-2H-pyran-3-yl)methyl)-4H-1,2,4-triazol-3-yl)propane-2-sulfonamide]
  EC50: 13 nM

## CCc1noc(C)c1Cn1c(NS(=O)(=O)[C@@H](C)[C@@H](OC(C)C)c2ncc(C)cn2)nnc1-c1cccc(OC)n1 [Example 194.0, (1S,2S)-N-(4-((3-ethyl-5-methyl-1,2-oxazol-4-yl)methyl)-5-(6-methoxy-2-pyridinyl)-4H-1,2,4-triazol-3-yl)-1-(5-methyl-2-pyrimidinyl)-1-(2-propanyloxy)-2-propanesulfonamide]
  EC50: 56 nM

## COc1cccc(-c2nnc(NS(=O)(=O)[C@@H](C)[C@@H](OC(C)C)c3ncc(C)cn3)n2[C@@H](C)c2ccon2)n1 (single isomer, unassigned) [Example 270.0, (1S,2S)-1-isopropoxy-N-(4-((R)-1-(isoxazol-3-yl)ethyl)-5-(6-methoxypyridin-2-yl)-4H-1,2,4-triazol-3-yl)-1-(5-methylpyrimidin-2-yl)propane-2-sulfonamide or (1S,2S)-1-isopropoxy-N-(4-((S)-1-(isoxazol-3-yl)ethyl)-5-(6-methoxypyridin-2-yl)-4H-1,2,4-triazol-3-yl)-1-(5-methylpyrimidin-2-yl)propane-2-sulfonamide]
  EC50: 5.1 nM

## COCC1(n2c(NS(=O)(=O)[C@@H](C)[C@@H](OC(C)C)c3ncc(C)cn3)nnc2-c2cncc(C)c2)CC1 [Example 63.0]
  EC50: 20 nM

## COC[C@H](C)n1c(NS(=O)(=O)[C@@H](C)[C@H](OC)c2ncc(Cl)cn2)nnc1-c1cccc(OC)n1 [Example 48.0]
  EC50: 1.3 nM

## COCCn1c(NS(=O)(=O)[C@@H](C)[C@H](C)c2ncc(OC)cn2)nnc1-c1ccccn1 [Example 21.0, (2S,3R)-N-(4-(2-methoxyethyl)-5-(2-pyridinyl)-4H-1,2,4-triazol-3-yl)-3-(5-methoxy-2-pyrimidinyl)-2-butanesulfonamide]
  EC50: 430 nM

— patent publication US10689367B2, “Triazole pyridyl compounds as agonists of the APJ receptor” (AMGEN INC., priority 2016, dated 2020)
